According to paper PMC11864979, “First-in-class ultralong-target-residence-time p38α inhibitors as a mitosis-targeted therapy for colorectal cancer” (Nature Cancer, 2025):
Like-named read-outs stand apart in the source and are kept apart here.

How the values were obtained:
Assay in all cases: selectivity profiling in a panel of 340 wild-type kinases (Reaction Biology Europe)
Assay type in all cases: binding
340 wild-type kinases [1] = target: T1, 340 wild-type kinases (Homo sapiens, UniProt O95819)
T1 construct: purchased Reaction Biology Europe

340 wild-type kinases [2] = target: T2, 340 wild-type kinases (Homo sapiens, UniProt P07332)
T2 construct: purchased Reaction Biology Europe

340 wild-type kinases [3] = target: T3, 340 wild-type kinases (Homo sapiens, UniProt P08922)
T3 construct: purchased Reaction Biology Europe

340 wild-type kinases [4] = target: T4, 340 wild-type kinases (Homo sapiens, UniProt P32298)
T4 construct: purchased Reaction Biology Europe

340 wild-type kinases [5] = target: T5, 340 wild-type kinases (Homo sapiens, UniProt P37173)
T5 construct: purchased Reaction Biology Europe

340 wild-type kinases [6] = target: T6, 340 wild-type kinases (Homo sapiens, UniProt Q13627)
T6 construct: purchased Reaction Biology Europe

340 wild-type kinases [7] = target: T7, 340 wild-type kinases (Homo sapiens, UniProt Q13705)
T7 construct: purchased Reaction Biology Europe

340 wild-type kinases [8] = target: T8, 340 wild-type kinases (Homo sapiens, UniProt Q16832)
T8 construct: purchased Reaction Biology Europe
T8 sequence (Q16832 22-855): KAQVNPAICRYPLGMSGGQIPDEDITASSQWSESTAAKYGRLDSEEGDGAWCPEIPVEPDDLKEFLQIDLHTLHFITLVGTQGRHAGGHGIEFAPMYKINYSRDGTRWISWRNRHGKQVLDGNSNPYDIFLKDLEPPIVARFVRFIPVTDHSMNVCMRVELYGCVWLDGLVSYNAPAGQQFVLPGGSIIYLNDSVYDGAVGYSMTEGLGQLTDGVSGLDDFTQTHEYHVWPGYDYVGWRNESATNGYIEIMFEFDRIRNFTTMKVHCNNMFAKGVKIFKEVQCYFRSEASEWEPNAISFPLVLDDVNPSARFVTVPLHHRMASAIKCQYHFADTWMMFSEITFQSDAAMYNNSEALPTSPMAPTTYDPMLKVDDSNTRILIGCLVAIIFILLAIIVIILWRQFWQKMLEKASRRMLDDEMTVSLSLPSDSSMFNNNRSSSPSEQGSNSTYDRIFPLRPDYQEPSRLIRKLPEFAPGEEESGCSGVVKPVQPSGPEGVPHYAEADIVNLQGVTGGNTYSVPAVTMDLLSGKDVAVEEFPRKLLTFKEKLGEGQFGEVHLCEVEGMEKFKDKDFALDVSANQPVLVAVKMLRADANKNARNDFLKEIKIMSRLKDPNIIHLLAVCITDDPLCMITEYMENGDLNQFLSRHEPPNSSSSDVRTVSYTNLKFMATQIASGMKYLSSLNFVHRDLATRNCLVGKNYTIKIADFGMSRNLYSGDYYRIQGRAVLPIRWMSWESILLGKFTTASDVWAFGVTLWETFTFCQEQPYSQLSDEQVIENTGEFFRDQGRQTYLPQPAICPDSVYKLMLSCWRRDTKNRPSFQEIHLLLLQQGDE

340 wild-type kinases [9] = target: T9, 340 wild-type kinases (Homo sapiens, UniProt Q86V86)
T9 construct: purchased Reaction Biology Europe

340 wild-type kinases [10] = target: T10, 340 wild-type kinases (Homo sapiens, UniProt Q96RG2)
T10 construct: purchased Reaction Biology Europe

T3 sequence (P08922 28-2347): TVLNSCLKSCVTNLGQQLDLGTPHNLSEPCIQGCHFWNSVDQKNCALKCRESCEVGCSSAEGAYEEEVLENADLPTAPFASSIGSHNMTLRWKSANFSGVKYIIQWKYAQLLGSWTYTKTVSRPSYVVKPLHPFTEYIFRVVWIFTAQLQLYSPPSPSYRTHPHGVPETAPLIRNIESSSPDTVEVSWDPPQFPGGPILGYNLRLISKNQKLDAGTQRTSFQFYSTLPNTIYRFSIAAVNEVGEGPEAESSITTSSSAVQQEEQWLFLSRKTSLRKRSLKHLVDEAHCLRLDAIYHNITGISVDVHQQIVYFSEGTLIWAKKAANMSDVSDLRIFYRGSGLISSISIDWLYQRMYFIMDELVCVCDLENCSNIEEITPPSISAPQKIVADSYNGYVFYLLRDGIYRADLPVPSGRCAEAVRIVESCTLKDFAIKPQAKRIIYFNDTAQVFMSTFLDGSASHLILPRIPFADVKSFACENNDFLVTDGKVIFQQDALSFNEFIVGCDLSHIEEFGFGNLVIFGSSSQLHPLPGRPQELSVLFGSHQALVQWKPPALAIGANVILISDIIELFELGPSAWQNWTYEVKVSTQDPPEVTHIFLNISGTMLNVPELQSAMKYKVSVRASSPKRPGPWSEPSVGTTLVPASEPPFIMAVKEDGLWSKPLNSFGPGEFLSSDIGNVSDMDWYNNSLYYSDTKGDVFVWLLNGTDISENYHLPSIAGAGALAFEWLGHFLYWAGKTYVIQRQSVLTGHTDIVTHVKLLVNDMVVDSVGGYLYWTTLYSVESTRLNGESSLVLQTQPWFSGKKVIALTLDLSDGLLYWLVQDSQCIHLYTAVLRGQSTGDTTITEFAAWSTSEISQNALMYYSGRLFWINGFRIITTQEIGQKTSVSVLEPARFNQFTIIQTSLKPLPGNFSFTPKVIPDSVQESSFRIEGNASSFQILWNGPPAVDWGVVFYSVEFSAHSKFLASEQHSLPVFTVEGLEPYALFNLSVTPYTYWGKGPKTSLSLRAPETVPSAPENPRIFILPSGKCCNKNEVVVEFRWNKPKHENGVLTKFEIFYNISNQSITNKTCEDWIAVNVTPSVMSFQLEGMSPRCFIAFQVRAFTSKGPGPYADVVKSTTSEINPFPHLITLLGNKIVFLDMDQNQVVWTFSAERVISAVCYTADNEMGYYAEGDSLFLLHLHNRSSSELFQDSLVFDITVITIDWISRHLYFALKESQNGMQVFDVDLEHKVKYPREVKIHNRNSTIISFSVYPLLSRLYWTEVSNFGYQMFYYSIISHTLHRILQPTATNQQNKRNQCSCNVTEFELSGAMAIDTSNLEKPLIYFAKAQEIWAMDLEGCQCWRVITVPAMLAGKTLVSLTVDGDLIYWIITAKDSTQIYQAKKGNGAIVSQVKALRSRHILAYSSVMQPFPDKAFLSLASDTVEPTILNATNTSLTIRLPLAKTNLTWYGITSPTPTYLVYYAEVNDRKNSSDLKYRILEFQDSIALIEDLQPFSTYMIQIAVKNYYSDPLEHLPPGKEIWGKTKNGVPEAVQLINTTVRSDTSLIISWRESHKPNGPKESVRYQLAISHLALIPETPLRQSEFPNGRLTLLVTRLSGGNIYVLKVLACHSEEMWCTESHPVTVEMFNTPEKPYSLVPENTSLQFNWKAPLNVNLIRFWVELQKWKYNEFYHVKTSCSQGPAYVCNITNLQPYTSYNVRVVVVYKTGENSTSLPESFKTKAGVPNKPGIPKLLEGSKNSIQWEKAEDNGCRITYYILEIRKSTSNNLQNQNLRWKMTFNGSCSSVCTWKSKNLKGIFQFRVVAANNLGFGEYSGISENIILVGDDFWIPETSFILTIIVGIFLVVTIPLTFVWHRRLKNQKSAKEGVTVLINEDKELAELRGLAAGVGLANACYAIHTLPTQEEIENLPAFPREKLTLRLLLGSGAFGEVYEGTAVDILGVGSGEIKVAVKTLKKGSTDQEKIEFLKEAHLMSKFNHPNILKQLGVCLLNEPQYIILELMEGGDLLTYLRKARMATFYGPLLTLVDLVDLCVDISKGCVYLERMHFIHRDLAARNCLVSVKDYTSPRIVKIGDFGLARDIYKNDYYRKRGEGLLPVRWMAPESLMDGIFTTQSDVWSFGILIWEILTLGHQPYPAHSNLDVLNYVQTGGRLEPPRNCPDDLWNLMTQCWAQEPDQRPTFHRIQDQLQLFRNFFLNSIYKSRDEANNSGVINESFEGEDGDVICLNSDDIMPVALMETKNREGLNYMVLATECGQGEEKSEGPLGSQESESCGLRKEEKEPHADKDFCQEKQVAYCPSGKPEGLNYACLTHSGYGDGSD
T1 sequence (O95819 whole entry): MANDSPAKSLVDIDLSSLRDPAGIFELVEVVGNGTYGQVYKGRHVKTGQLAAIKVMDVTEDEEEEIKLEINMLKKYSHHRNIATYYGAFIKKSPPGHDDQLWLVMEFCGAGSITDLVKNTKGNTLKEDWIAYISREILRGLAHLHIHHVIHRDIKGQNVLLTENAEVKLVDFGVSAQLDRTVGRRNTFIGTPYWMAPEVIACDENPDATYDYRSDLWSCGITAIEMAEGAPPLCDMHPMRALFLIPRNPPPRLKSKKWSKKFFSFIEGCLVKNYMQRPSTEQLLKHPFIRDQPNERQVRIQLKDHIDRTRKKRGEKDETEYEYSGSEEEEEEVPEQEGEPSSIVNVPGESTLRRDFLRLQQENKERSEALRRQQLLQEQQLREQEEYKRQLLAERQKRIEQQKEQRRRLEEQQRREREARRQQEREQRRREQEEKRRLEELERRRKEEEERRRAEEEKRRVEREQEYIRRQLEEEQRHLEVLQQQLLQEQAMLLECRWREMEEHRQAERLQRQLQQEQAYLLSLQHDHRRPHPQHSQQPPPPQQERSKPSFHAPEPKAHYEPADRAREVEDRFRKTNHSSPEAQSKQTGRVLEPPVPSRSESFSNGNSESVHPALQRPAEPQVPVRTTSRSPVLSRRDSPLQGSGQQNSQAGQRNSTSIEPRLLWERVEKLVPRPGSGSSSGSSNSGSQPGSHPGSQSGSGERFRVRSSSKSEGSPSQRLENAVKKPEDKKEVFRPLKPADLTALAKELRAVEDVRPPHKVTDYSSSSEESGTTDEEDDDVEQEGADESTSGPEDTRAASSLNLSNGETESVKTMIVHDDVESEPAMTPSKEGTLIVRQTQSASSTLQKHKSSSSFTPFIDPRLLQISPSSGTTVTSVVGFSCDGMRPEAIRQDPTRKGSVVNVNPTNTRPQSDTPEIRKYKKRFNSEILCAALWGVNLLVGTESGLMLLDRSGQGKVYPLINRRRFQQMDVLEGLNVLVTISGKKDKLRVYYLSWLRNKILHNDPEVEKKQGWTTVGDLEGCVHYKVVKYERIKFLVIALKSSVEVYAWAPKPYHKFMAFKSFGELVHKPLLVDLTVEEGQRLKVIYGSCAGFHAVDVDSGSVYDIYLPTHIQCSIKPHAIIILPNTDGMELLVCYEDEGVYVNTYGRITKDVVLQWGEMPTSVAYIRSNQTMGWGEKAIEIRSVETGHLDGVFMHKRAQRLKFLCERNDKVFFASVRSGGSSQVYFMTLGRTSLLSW
T2 sequence (P07332 whole entry): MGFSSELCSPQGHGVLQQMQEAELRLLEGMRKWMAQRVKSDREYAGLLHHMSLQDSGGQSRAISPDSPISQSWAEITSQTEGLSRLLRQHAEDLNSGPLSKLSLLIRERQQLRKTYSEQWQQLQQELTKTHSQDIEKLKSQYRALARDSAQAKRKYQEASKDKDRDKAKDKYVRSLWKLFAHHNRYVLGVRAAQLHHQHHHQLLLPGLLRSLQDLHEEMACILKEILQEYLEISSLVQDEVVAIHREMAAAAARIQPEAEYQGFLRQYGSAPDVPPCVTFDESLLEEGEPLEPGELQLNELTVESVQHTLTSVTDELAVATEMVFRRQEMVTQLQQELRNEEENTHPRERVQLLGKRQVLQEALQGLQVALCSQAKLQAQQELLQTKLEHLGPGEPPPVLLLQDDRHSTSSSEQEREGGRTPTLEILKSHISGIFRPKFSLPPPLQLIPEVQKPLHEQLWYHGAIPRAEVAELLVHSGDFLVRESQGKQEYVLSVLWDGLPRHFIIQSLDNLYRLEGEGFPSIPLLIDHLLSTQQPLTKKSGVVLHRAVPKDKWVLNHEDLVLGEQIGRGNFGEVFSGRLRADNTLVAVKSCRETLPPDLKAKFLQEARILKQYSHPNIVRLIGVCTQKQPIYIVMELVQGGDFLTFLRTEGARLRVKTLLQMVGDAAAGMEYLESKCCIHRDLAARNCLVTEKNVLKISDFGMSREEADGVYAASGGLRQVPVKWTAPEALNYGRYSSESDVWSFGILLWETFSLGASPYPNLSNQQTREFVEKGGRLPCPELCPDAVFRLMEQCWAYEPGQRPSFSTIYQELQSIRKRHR

`CNC(=O)c1ccc2c(c1)C(=O)c1ccc(Nc3ccc(F)c(NC(=O)C4CC4)c3)cc1CC2` [Compound 2015] gave a remaining activity at 0.2 µM (340 wild-type kinases [1]; 0.2 µM 2015, read-out: MAP4K4 residual activity) of 90.2%, a remaining activity at 1 µM (340 wild-type kinases [1]; 1 µM 2015, read-out: MAP4K4 residual activity) of 81.8% and a remaining activity at 0.2 µM (340 wild-type kinases [1]; MAP4K4, 0.2 µM, read-out: residual activity) of 90.2%. The remaining activity at 1 µM (340 wild-type kinases [1]; MAP4K4, 1 µM, read-out: residual activity) was 81.8%, the remaining activity at 0.2 µM (340 wild-type kinases [2]; 0.2 µM 2015, read-out: FES residual activity) was 105% and the remaining activity at 1 µM (340 wild-type kinases [2]; 1 µM 2015, read-out: FES residual activity) was 92.1%. For the same compound, the remaining activity at 0.2 µM (340 wild-type kinases [2]; FES, 0.2 µM, read-out: residual activity) was 105%, the remaining activity at 1 µM (340 wild-type kinases [2]; FES, 1 µM, read-out: residual activity) was 92.1% and the remaining activity at 0.2 µM (340 wild-type kinases [3]; 0.2 µM 2015, read-out: ROS residual activity) was 114%. For the same compound, the remaining activity at 1 µM (340 wild-type kinases [3]; 1 µM 2015, read-out: ROS residual activity) was 94.6%, the remaining activity at 0.2 µM (340 wild-type kinases [3]; ROS, 0.2 µM, read-out: residual activity) was 114% and the remaining activity at 1 µM (340 wild-type kinases [3]; ROS, 1 µM, read-out: residual activity) was 94.6%. It also gave a remaining activity at 0.2 µM (340 wild-type kinases [4]; 0.2 µM 2015, read-out: GRK4 residual activity) of 123%, a remaining activity at 1 µM (340 wild-type kinases [4]; 1 µM 2015, read-out: GRK4 residual activity) of 104% and a remaining activity at 0.2 µM (340 wild-type kinases [4]; GRK4, 0.2 µM, read-out: residual activity) of 123%. For the same compound, the remaining activity at 1 µM (340 wild-type kinases [4]; GRK4, 1 µM, read-out: residual activity) was 104%, the remaining activity at 0.2 µM (340 wild-type kinases [5]; 0.2 µM 2015, read-out: TGFBR2 residual activity) was 78.4% and the remaining activity at 1 µM (340 wild-type kinases [5]; 1 µM 2015, read-out: TGFBR2 residual activity) was 76.8%. The remaining activity at 0.2 µM (340 wild-type kinases [5]; TGFBR2, 0.2 µM, read-out: residual activity) was 78.3%, the remaining activity at 1 µM (340 wild-type kinases [5]; TGFBR2, 1 µM, read-out: residual activity) was 76.8% and the remaining activity at 0.2 µM (340 wild-type kinases [6]; 0.2 µM 2015, read-out: DYRK1A residual activity) was 86.7%. The remaining activity at 1 µM (340 wild-type kinases [6]; 1 µM 2015, read-out: DYRK1A residual activity) was 90.3%, the remaining activity at 0.2 µM (340 wild-type kinases [6]; DYRK1A, 0.2 µM, read-out: residual activity) was 86.8% and the remaining activity at 1 µM (340 wild-type kinases [6]; DYRK1A, 1 µM, read-out: residual activity) was 90.3%. It also gave a remaining activity at 0.2 µM (340 wild-type kinases [7]; 0.2 µM 2015, read-out: ACVR2B residual activity) of 81.6%, a remaining activity at 1 µM (340 wild-type kinases [7]; 1 µM 2015, read-out: ACVR2B residual activity) of 82.3% and a remaining activity at 0.2 µM (340 wild-type kinases [7]; ACVR2B, 0.2 µM, read-out: residual activity) of 81.7%. It also gave a remaining activity at 1 µM (340 wild-type kinases [7]; ACVR2B, 1 µM, read-out: residual activity) of 82.3%, a remaining activity at 0.2 µM (340 wild-type kinases [8]; 0.2 µM 2015, read-out: DDR2 residual activity) of 106% and a remaining activity at 1 µM (340 wild-type kinases [8]; 1 µM 2015, read-out: DDR2 residual activity) of 98.8%. It also gave a remaining activity at 0.2 µM (340 wild-type kinases [8]; DDR2, 0.2 µM, read-out: residual activity) of 106%, a remaining activity at 1 µM (340 wild-type kinases [8]; DDR2, 1 µM, read-out: residual activity) of 98.8% and a remaining activity at 0.2 µM (340 wild-type kinases [9]; 0.2 µM 2015, read-out: PIM3 residual activity) of 95.8%. The remaining activity at 1 µM (340 wild-type kinases [9]; 1 µM 2015, read-out: PIM3 residual activity) was 92.3%, the remaining activity at 0.2 µM (340 wild-type kinases [9]; PIM3, 0.2 µM, read-out: residual activity) was 95.8% and the remaining activity at 1 µM (340 wild-type kinases [9]; PIM3, 1 µM, read-out: residual activity) was 92.2%. For the same compound, the remaining activity at 0.2 µM (340 wild-type kinases [10]; 0.2 µM 2015, read-out: PASK residual activity) was 99.2%, the remaining activity at 1 µM (340 wild-type kinases [10]; 1 µM 2015, read-out: PASK residual activity) was 95.1% and the remaining activity at 0.2 µM (340 wild-type kinases [10]; PASK, 0.2 µM, read-out: residual activity) was 99.2%. For the same compound, the remaining activity at 1 µM (340 wild-type kinases [10]; PASK, 1 µM, read-out: residual activity) was 95.1%.
